Active and inactive are the calls of the source. No cut-off for these calls is given here.
Columns and labels:
[1] = Induction of apoptosis in human QBC939 cells assessed as late apoptotic cells at 2 uM by annexin V-FITC and propidium iodide staining based flow cytometric analysis; assay type: functional
[2] = Induction of apoptosis in human QBC939 cells assessed as viable cells at 2 uM in presence of 2J/cm2 light irradiation measured after 24 hrs by annexin V-FITC and propidium iodide staining based flow cytometric analysis (reference value: 99.6 %); assay type: functional; conditions: QBC939, light or radiation study, read-out: Activity
[3] = Induction of apoptosis in human QBC939 cells assessed as necrotic cells at 2 uM in presence of 2J/cm2 light irradiation measured after 24 hrs by annexin V-FITC and propidium iodide staining based flow cytometric analysis (reference value: 0.02 %); assay type: functional
[4] = Phototoxicity in ICR mouse assessed as pathological changes 1 mg/kg, iv in presence of 10 mW/cm2 light irradiation for 10 mins at 1 day after drug challenge and measured after 1 day of light irradiation by H and E staining based microscopic analysis; assay type: organism-based; conditions: in vivo, 48 h, time 2 day
[5] = Drug uptake in human QBC939 cells at 4 uM by fluorescence spectrophotometer analysis; assay type: ADME, cell-based; conditions: qbc939, 4 µM
[6] = Emission property of compound in poly-oxyethylene castor oil and PBS assessed as Q band emission wavelength by […]; assay type: physicochemical; conditions: buffer
[7] = Induction of singlet oxygen generation in DMSO assessed as bleaching rate at 10 uM under 650 nanometer light irradiation; assay type: functional
[8] = Phototoxicity against human QBC939 cells assessed as reduction in cell viability irradiated with 2 J/cm2 of 650 nanometer laser light preincubated for 24 hrs in dark and measured after 24 hrs by MTT assay; assay type: functional, cell-based; conditions: QBC939, light or radiation study
[9] = Absorption property of the compound in DMF assessed as Q band log absorption coefficient by UV-visible spectrophotometric method; assay type: physicochemical
[10] = Phototoxicity in ICR mouse assessed as ear weight at 1 mg/kg, iv followed by 10 mW/cm2 light irradiation for 10 mins at 1 day after drug challenge and measured after 1 day of light irradiation by H and E staining based microscopic analysis (reference value: 12.4 +/- 1.5 mg); assay type: organism-based; conditions: in vivo, 48 h, time 2 day
[11] = Drug localization in nucleus of human QBC939 cells at 4 uM incubated for 4 hrs in dark by Hoechst 33342 based confocal microscopic method; assay type: ADME, subcellular; conditions: qbc939, 4 h
[12] = Phototoxicity in ICR mouse assessed as neck skin weight at 1 mg/kg, iv followed by 10 mW/cm2 light irradiation for 10 mins at 1 day after drug challenge and measured after 1 day of light irradiation by H and E staining based microscopic analysis (reference value: 36.5 +/- 2.4 mg); assay type: organism-based; conditions: in vivo, 48 h, time 2 day
[13] = Phototoxicity against human QBC939 cells assessed as reduction in cell viability irradiated with 1 J/cm2 of 650 nanometer laser light preincubated for 24 hrs in dark and measured after 24 hrs by MTT assay; assay type: functional, cell-based; conditions: QBC939, light or radiation study
[14] = Induction of apoptosis in human QBC939 cells assessed as necrotic cells at 2 uM by annexin V-FITC and propidium iodide staining based flow cytometric analysis; assay type: functional
[15] = Phototoxicity against human QBC939 cells assessed as reduction in cell viability irradiated with 4 J/cm2 of 650 nanometer laser light preincubated for 24 hrs in dark and measured after 24 hrs by MTT assay; assay type: functional, cell-based; conditions: QBC939, light or radiation study
[16] = Induction of apoptosis in human QBC939 cells assessed as viable cells at 2 uM in presence of 2J/cm2 light irradiation measured after 2 hrs by annexin V-FITC and propidium iodide staining based flow cytometric analysis (reference value: 99.6 %); assay type: functional; conditions: QBC939, light or radiation study, read-out: Activity
[17] = Induction of apoptosis in human QBC939 cells assessed as necrotic cells at 2 uM in presence of 2J/cm2 light irradiation measured after 2 hrs by annexin V-FITC and propidium iodide staining based flow cytometric analysis (reference value: 0.02 %); assay type: functional
[18] = Drug localization in lysosome of human QBC939 cells at 4 uM incubated for 4 hrs in dark by lyso-tracker blue based confocal microscopic method; assay type: ADME, subcellular; conditions: qbc939, 4 h
[19] = Induction of apoptosis in human QBC939 cells assessed as early apoptotic cells at 2 uM in presence of 2J/cm2 light irradiation measured after 2 hrs by annexin V-FITC and propidium iodide staining based flow cytometric analysis (reference value: 0.01 %); assay type: functional
[20] = Phototoxicity in ICR mouse assessed as tail weight at 1 mg/kg, iv followed by 10 mW/cm2 light irradiation for 10 mins at 1 day after drug challenge and measured after 1 day of light irradiation by H and E staining based microscopic analysis (reference value: 115.6 +/- 5.6 mg); assay type: organism-based; conditions: in vivo, 48 h, time 2 day
[21] = Induction of singlet oxygen generation in DMF solution irradiated with 650 nanometer laser light in every 1 min by ESR assay; assay type: functional
[22] = Induction of apoptosis in human QBC939 cells assessed as viable cells at 2 uM by annexin V-FITC and propidium iodide staining based flow cytometric analysis (reference value: 99.99 %); assay type: functional; conditions: read-out: Activity
[23] = Photodynamic antitumor activity against human QBC939 cells xenografted in BALB/c nude mouse assessed as tumor weight at 1 mg/kg, iv followed by laser light irradiation at 120 J/cm2 measured after 13 days; assay type: functional; conditions: time 13 day
[24] = Absorption property of the compound in DMSO assessed as Q band maximum absorption wavelength by UV-visible spectrophotometric method; assay type: physicochemical
[25] = Drug uptake in mouse assessed as drug level in plasma at 1 mg/kg, iv measured upto 24 hrs by fluorometric method; assay type: ADME, organism-based; conditions: in vivo
QBC939 [26] = assay: Photodynamic antitumor activity against human QBC939 cells xenografted in BALB/c nude mouse assessed as decrease in tumor weight at 1 mg/kg, iv under dark condition measured after 13 days; assay type: functional, organism-based; conditions: time 13.0 day
[27] = Absorption property of compound in poly-oxyethylene castor oil and PBS assessed as Q band log absorption coefficient by UV-visible spectrophotometric method; assay type: physicochemical; conditions: buffer
[28] = Emission property of compound in DMF assessed as Q band emission wavelength by […]; assay type: physicochemical
[29] = Induction of apoptosis in human QBC939 cells assessed as early apoptotic cells at 2 uM in presence of 2J/cm2 light irradiation measured after 24 hrs by annexin V-FITC and propidium iodide staining based flow cytometric analysis (reference value: 0.01 %); assay type: functional
[30] = Drug localization in mitochondria of human QBC939 cells at 4 uM incubated for 4 hrs in dark by mito-tracker green based confocal microscopic method; assay type: ADME; conditions: qbc939, 4 h
[31] = Dark toxicity in human QBC939 cells assessed as reduction in cell viability incubated under dark for 24 hrs measured after 24 hrs by MTT assay; assay type: cell-based; conditions: read-out: TC50
[32] = Induction of apoptosis in human QBC939 cells assessed as early apoptotic cells at 2 uM by annexin V-FITC and propidium iodide staining based flow cytometric analysis (reference value: 0.01 %); assay type: functional
[33] = Drug uptake in nude mouse xenografted with QBC939 cells assessed as drug level in tumor tissue at 1 mg/kg, iv measured after 8 hrs by fluorescence imaging assay; assay type: ADME, organism-based, Neoplasm; conditions: in vivo
[34] = Absorption property of compound in poly-oxyethylene castor oil and PBS assessed as Q band maximum absorption wavelength by UV-visible spectrophotometric method; assay type: physicochemical; conditions: buffer
[35] = Emission property of compound in DMSO assessed as Q band emission wavelength by […]; assay type: physicochemical
QBC939 [36] = assay: Photodynamic antitumour activity against human QBC939 cells xenografted in BABL/c nude mouse assessed as increase in apoptotic cells at 1 mg/kg, iv measured after 1 day of light irradiation by TUNEL assay; assay type: functional, organism-based
[37] = Absorption property of the compound in DMF assessed as Q band maximum absorption wavelength by UV-visible spectrophotometric method; assay type: physicochemical
[38] = Drug uptake in nude mouse xenografted with QBC939 cells assessed as drug level in tumor tissue at 1 mg/kg, iv measured after 24 hrs by fluorescence imaging assay; assay type: ADME, organism-based, Neoplasm; conditions: in vivo
[39] = Induction of apoptosis in human QBC939 cells assessed as late apoptotic cells at 2 uM in presence of 2J/cm2 light irradiation measured after 24 hrs by annexin V-FITC and propidium iodide staining based flow cytometric analysis (reference value: 0.01 %); assay type: functional
[40] = Absorption property of the compound in DMSO assessed as Q band log absorption coefficient by UV-visible spectrophotometric method; assay type: physicochemical
[41] = Induction of apoptosis in human QBC939 cells assessed as late apoptotic cells at 2 uM in presence of 2J/cm2 light irradiation measured after 2 hrs by annexin V-FITC and propidium iodide staining based flow cytometric analysis (reference value: 0.01 %); assay type: functional
[42] = Phototoxicity in ICR mouse assessed as back skin weight at 1 mg/kg, iv followed by 10 mW/cm2 light irradiation for 10 mins at 1 day after drug challenge and measured after 1 day of light irradiation by H and E staining based microscopic analysis (reference value: 34.3 +/- 2.1 mg); assay type: organism-based; conditions: in vivo, 48 h, time 2 day
[43] = Phototoxicity in ICR mouse assessed as skin swelling at 1 mg/kg, iv followed by 10 mW/cm2 light irradiation for 10 mins at 1 day after drug challenge and measured after 1 day of light irradiation by H and E staining based microscopic analysis; assay type: organism-based; conditions: in vivo, 48 h, time 2 day
[44] = Phototoxicity in ICR mouse assessed as dermal inflammation 1 mg/kg, iv in presence of 10 mW/cm2 light irradiation for 10 mins at 1 day after drug challenge and measured after 1 day of light irradiation by H and E staining based microscopic analysis; assay type: organism-based; conditions: in vivo, 48 h, time 2 day
[45] = Phototoxicity in ICR mouse assessed as ear swelling at 1 mg/kg, iv followed by 10 mW/cm2 light irradiation for 10 mins at 1 day after drug challenge and measured after 1 day of light irradiation by H and E staining based microscopic analysis; assay type: organism-based; conditions: in vivo, 48 h, time 2 day
[46] = Phototoxicity in ICR mouse assessed as skin erythema at 1 mg/kg, iv followed by 10 mW/cm2 light irradiation for 10 mins at 1 day after drug challenge and measured after 1 day of light irradiation by H and E staining based microscopic analysis; assay type: organism-based; conditions: in vivo, 48 h, time 2 day

COC(=O)C1(C(=O)NCCO)C2c3nc(c(-c4ccccc4)c4ccc([nH]4)c(-c4ccccc4)c4nc(c(-c5ccccc5)c5ccc([nH]5)c3-c3ccccc3)C=C4)C21 (configuration not stated)
Activity [1]: 2.32% | viability at 2 µM [2]: 25.6% | Activity [3]: 9.7% | Activity [4]: Non-Toxic | Drug uptake [5]: Active | Activity [6]: 655 nm | Activity [7]: Active | IC50 [8]: 1920 nM | Activity [9]: 4.03 | Activity [10]: 13.2 mg | Drug uptake [11]: Not Active | Activity [12]: 38.1 mg | IC50 [13]: 3410 nM | Activity [14]: 0.96% | IC50 [15]: 1170 nM | viability at 2 µM [16]: 75.9% | Activity [17]: 17.07% | Drug uptake [18]: Active | Activity [19]: 2.1% | Activity [20]: 114.9 mg | Activity [21]: Active | viability at 2 µM [22]: 95.1% | Activity [23]: 17% | Activity [24]: 654 nm | Drug uptake [25]: Active | Activity (QBC939 [26]): inactive | Activity [27]: 3.34 | Activity [28]: 652 nm | Activity [29]: 19.8% | Drug uptake [30]: Active | CC50 at 48 h [31]: > 8000 nM | Activity [32]: 1.65% | Drug uptake [33]: Active | Activity [34]: 650 nm | Activity [35]: 650 nm | Activity (QBC939 [36]): Active | Activity [37]: 652 nm | Drug uptake [38]: Active | Activity [39]: 44.9% | Activity [40]: 4 | Activity [41]: 4.9% | Activity [42]: 35.3 mg

Oc1cccc(-c2c3nc(c(-c4cccc(O)c4)c4ccc([nH]4)c(-c4cccc(O)c4)c4nc(c(-c5cccc(O)c5)c5ccc2[nH]5)CC4)C=C3)c1 [TEMOPORFIN]
Activity [43]: Toxic | IC50 [8]: 1460 nM | Activity [10]: 15.6 mg | Activity [44]: Toxic | Activity [12]: 42.7 mg | IC50 [13]: 2960 nM | IC50 [15]: 630 nM | Activity [20]: 120.4 mg | Activity [45]: Toxic | Activity [23]: 35% | Activity (QBC939 [26]): inactive | Activity [46]: Toxic | CC50 at 48 h [31]: 6080 nM | Activity (QBC939 [36]): Active | Activity [42]: 39.2 mg
